This is an account of results in ChEMBL document CHEMBL4219032, “Triple Reuptake Inhibitors as Potential Therapeutics for Depression and Other Disorders: Design Paradigm and Developmental Challenges” (J Med Chem, 2018).

Series [1] deals with T1, Sodium-dependent dopamine transporter (Homo sapiens, UniProt Q01959). Put plainly: Inhibition of DAT (unknown origin) assessed as reduction of [3H]-DA re-uptake.
The target of series [2] is T2, Sodium-dependent serotonin transporter (Homo sapiens, UniProt P31645). Put plainly: Inhibition of human SERT expressed in CHO cells assessed as reduction of [3H]-5-HT re-uptake preincubated for 10 mins followed by [3H]-5-HT addition measured after 10 mins by liquid scintillation counting. It counts as cell-based.
Series [3] deals with T3, Sodium-dependent noradrenaline transporter (Homo sapiens, UniProt P23975). Put plainly: Inhibition of human NET expressed in CHO cells assessed as reduction of [3H]-NE re-uptake preincubated for 10 mins followed by [3H]-NE addition measured after 10 mins by liquid scintillation counting. The format is cell-based.
Series [4] deals with T1, Sodium-dependent dopamine transporter. In words: Inhibition of human DAT expressed in CHO cells assessed as reduction of [3H]-DA re-uptake preincubated for 10 mins followed by [3H]-DA addition measured after 10 mins by liquid scintillation counting. It counts as cell-based.
The target is the same in series [5].
Description: Binding affinity to DAT (unknown origin)
For series [6], the system named is Homo sapiens. In words: Anti-obesity activity in human assessed as body weight loss at […], po administered for 6 months relative to control. It counts as functional.
In series [7] the test system is Homo sapiens. In words: Anti-obesity activity in human assessed as body weight loss at 0.5 mg/kg, po administered for 6 months relative to control. It counts as functional.
Series [8] relates to Homo sapiens. In words: Anti-obesity activity in human assessed as body weight loss at 1 mg/kg, po administered for 6 months relative to control. It counts as functional.
For series [9], the system named is Homo sapiens. In words: In vivo receptor occupancy at DAT in human brain at 0.125 to 0.5 mg, iv via bolus dosing measured at 3 hrs post dose by PET analysis. It counts as functional.
Series [10] is described as follows: Tmax in human at 9 mg. The format is ADME, organism-based. To be noted: in vivo.
In series [11] the target is T2, Sodium-dependent serotonin transporter.
Description: Binding affinity to SERT (unknown origin)
The target of series [12] is T3, Sodium-dependent noradrenaline transporter.
Description: Binding affinity to NET (unknown origin)
Series [13] in a line: Ratio of drug uptake in Sprague-Dawley rat brain to plasma at 1 mg/kg, sc by HPLC analysis. As to conditions: read-out: BPR. It counts as ADME, organism-based.
Series [14] deals with Rattus norvegicus. Put plainly: In vivo receptor occupancy at SERT in Sprague-Dawley rat at 0.1 mg/kg, sc measured at 1 to 8 hrs post dose. The format is functional.
Series [15] deals with Rattus norvegicus. Put plainly: In vivo receptor occupancy at NET in Sprague-Dawley rat at 0.1 mg/kg, sc measured at 1 to 8 hrs post dose. It counts as functional.
The test system of series [16] is Rattus norvegicus. Put plainly: In vivo receptor occupancy at DAT in Sprague-Dawley rat at 0.1 mg/kg, sc measured at 1 to 8 hrs post dose. It counts as functional.
In series [17] the test system is Rattus norvegicus. Put plainly: In vivo receptor occupancy at SERT in ip dosed rat brain measured 60 mins post dose. The format is functional. As to conditions: 1 h.
Series [18] has as its system Rattus norvegicus. Put plainly: In vivo receptor occupancy at NET in ip dosed rat brain measured 60 mins post dose. The format is functional. To be noted: 1 h.
Series [19] concerns Rattus norvegicus. Put plainly: In vivo receptor occupancy at DAT in ip dosed rat brain measured 60 mins post dose. The format is functional. To be noted: 1 h.
For series [20], the system named is Mus musculus. Put plainly: Reversal of motor depression in po dosed mouse measured at 3rd, 6th and 23rd hr followed by second administration on 24th hr administered as 4 injections for 4 consecutive days measured from day 3 to 10 days post last dose. It counts as functional. As to conditions: read-out: MED.
Series [21] concerns Mus musculus. In words: Reversal of ptosis in po dosed mouse measured at 3rd, 6th and 23rd hr followed by second administration on 24th hr administered as 4 injections for 4 consecutive days measured from day 3 to 10 days post last dose. It counts as functional.
The test system of series [22] is Mus musculus. Put plainly: In vivo receptor occupancy at NET in mouse at 0.3 mg/kg. The format is functional.
Series [23] has as its system Mus musculus. In words: In vivo receptor occupancy at SERT in mouse at 0.3 mg/kg. The format is functional.
Series [24] concerns Mus musculus. Put plainly: In vivo receptor occupancy at DAT in mouse at 0.3 mg/kg. The format is functional.
For series [25], the system named is Homo sapiens. In words: In vivo receptor occupancy at SERT in human at 3 mg, po administered on day 1 measured on day 14 by [11C]-DASB -based PET imaging analysis. It counts as functional.
The test system of series [26] is Homo sapiens. In words: In vivo receptor occupancy at SERT in human at 0.5 mg, po administered on day 1 measured on day 14 by [11C]-DASB -based PET imaging analysis. It counts as functional.
Series [27] relates to Homo sapiens. Put plainly: In vivo receptor occupancy at DAT in human at 3 mg, po administered on day 1 measured on day 14 by […]-based PET imaging analysis. The format is functional.
Series [28] in a line: Tmax in human at 0.025 to 5 mg, po by LC-MS/MS analysis. It counts as ADME, organism-based. To be noted: in vivo.
Series [29] is described as follows: Half life in human at 0.025 to 5 mg, po by LC-MS/MS analysis. It counts as ADME, organism-based. As to conditions: in vivo.
In series [30] the test system is Mus musculus. Put plainly: Antidepressant activity in TST mouse model assessed as reduction in immobility time at 0.3 mg/kg, po relative to control. The format is functional.

T3 sequence (P23975 whole entry): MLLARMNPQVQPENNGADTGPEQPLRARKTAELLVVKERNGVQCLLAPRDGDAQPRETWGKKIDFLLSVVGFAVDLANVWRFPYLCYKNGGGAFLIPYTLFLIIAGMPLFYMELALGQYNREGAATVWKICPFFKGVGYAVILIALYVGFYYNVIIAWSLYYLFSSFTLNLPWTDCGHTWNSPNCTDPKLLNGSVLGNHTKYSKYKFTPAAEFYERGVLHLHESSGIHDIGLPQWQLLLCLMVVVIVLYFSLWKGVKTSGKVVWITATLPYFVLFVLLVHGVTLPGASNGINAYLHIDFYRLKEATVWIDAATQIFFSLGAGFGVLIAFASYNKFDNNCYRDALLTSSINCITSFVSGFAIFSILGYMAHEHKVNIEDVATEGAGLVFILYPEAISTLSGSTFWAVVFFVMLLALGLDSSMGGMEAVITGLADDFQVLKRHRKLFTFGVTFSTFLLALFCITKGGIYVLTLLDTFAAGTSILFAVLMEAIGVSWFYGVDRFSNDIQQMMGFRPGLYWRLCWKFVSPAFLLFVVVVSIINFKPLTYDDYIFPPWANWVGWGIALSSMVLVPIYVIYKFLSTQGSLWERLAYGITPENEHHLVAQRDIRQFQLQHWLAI
T1 sequence (Q01959 whole entry): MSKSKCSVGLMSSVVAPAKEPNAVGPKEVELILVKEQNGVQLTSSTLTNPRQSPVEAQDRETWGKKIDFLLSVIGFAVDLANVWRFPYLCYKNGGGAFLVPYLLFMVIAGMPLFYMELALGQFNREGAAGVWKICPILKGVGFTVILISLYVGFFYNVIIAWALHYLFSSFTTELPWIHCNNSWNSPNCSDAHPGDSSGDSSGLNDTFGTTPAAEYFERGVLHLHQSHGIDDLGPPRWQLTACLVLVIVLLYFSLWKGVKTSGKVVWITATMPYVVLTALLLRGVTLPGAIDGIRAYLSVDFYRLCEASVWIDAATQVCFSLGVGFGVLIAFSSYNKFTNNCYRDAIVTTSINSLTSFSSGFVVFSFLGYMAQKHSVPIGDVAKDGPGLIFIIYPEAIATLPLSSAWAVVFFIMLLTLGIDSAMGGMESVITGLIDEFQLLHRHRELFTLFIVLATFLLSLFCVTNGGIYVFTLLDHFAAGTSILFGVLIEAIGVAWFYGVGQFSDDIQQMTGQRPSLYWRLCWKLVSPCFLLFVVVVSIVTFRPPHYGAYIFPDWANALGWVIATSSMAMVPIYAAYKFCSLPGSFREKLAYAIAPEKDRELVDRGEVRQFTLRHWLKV
T2 sequence (P31645 whole entry): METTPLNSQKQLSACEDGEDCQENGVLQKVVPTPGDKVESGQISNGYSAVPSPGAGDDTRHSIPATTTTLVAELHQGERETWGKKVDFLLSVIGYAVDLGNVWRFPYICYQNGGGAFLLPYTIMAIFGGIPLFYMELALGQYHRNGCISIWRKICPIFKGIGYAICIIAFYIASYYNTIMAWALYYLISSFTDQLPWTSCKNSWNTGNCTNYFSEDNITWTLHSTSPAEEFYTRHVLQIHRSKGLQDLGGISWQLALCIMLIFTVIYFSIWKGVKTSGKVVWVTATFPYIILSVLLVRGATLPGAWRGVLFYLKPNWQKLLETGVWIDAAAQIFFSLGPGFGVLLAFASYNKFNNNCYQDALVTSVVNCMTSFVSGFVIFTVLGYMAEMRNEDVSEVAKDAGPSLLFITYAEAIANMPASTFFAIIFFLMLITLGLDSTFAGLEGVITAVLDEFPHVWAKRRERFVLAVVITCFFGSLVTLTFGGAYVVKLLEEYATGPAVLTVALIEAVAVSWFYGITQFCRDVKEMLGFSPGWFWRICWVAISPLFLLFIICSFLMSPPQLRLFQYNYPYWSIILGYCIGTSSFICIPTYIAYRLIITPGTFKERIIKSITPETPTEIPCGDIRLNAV

For orientation: IC50 means the point on the concentration scale where inhibition reaches its midpoint. Take `CNC[C@H]1C2CCC(C2)[C@@H]1c1ccc2ccccc2c1` (stereo not given in full): in [1], the IC50 amounted to 96 nM.
`CN(C)CC(c1ccc(OC(=O)c2ccccc2)cc1)C1(O)CCCCC1` (stereo not given): the results for the IC50 in series [2], in series [3] and in [4] were 105 nM, 644 nM and 813 nM, respectively.
Usually Tmax stands for the time at which the peak concentration occurs. Take `CCOC[C@H]1[C@@H](c2ccc(Cl)c(Cl)c2)C[C@@H]2CC[C@H]1N2C`: the IC50 in series [5] came to 8 nM; in series [11] it was 11 nM; in [12] it was 3.2 nM. Moreover, the values for the Activity in [6], in [7] and in [8] were 4.5%, 9.2% and 10.6%, respectively. The Occ in [9] is 18 - 77%. The Tmax in series [10] came out at 6 h.
The term Ki denotes the equilibrium dissociation constant of an inhibitor or competing ligand from its target. Read a low Ki as higher affinity. Turning to `C#Cc1ccc(C2CN3CCCC3c3ccccc32)cc1` (racemic), the results for the Ki in series [5], in series [11] and in [12] were 5.2 nM, 0.9 nM and 16.6 nM, respectively. For the same compound, the Kp in series [13] is 7.5. The results for the Occ in series [14], in [15] and in series [16] were 94%, 95% and 50%, respectively.
The term ED50 denotes the midpoint of the dose-response relation. On to `Clc1ccc([C@]23CNC[C@H]2C3)cc1Cl` [AMITIFADINE], for which the ED50 in series [17] was found to be 3 mg/kg; in [18], 19 mg/kg; in series [19], 95 mg/kg; in series [21], 2.2 mg/kg. Also, in [20], the minimal effective dose worked out at 1.6 mg/kg.
By half-life is commonly meant how long it takes for the measured level to halve. A lower half-life goes with fast loss. By inhibition in vivo is commonly meant the relative decrease from the control value, in per cent. For `CN1Cc2cc(-c3ccc(N)nn3)ccc2[C@H](c2ccc3ccccc3c2)C1` [LIAFENSINE], the Occ in [22] was found to be 76%; in series [23], 86%; in series [24] it was 28%; in series [25], 82%; in series [26] it was 19%; in series [27] it was 19%. Also, the Tmax in series [28] lay within 5 to 7.2 h. The half-life in series [29] was in the range of 34 to 57 h. Besides, the inhibition in vivo at 0.3 mg/kg in [30] is 77%. Further, the IC50 in series [11] was found to be 1.1 nM; in series [12], 8.8 nM.
